As a reminder, the pIC50 is the IC50 on a negative log10 scale, so that one unit is a factor of ten.

Data set [1] deals with central 5-HT production / CNS functions. The settings on record: cited from earlier work.
The conditions of data set [2]: carcinoid tumor patients; cited from earlier work.
A further data set deals with TPH. The settings on record: background statement; cited from earlier work.
For data set [3], the system named is jejunal mucosal 5-HT in mice (C57 BL6). The data set is described as follows: Reduction of mucosal 5-HT concentrations (Example C, repeated oral dosing). Format: in vivo, mouse. Conditions: P-value class. As to the method: The efficacy of the TPH1 inhibitors of the invention was assessed for the ability to decrease intestinal serotonin concentration in mice. Mice (C57 BL6) were administered an oral dose of 10 or 50 mg/kg of the test article in the evening. […] Following an overnight fast, each animal was euthanized by exsanguination under isoflurane anesthesia. Jejunal intestinal mucosa was isolated and homogenized in […] of a buffer containing 0.3M trichloroacetic acid, 0.1M sodium acetate, 10 mM EDTA, 20 mM sodium bisulfate and 50 mM ascorbic acid. Following centrifugation the 5-HT levels in the supernatants were measured by HPLC. The remaining mucosal pellet was solubilized overnight at 37° C. in a 0.1% sodium dodecyl sulfate buffer in 0.1N NaOH followed by determination of protein concentrations using a BCA protein assay (Pierce, Rockford, Ill.). 5-HT levels were normalized to protein and data were expressed as mean percent reduction of mucosal 5-HT levels relative to vehicle control±SEM (percent 5-HT reduction). All animal studies were carried out with protocols approved by the Institutional Animal Care and Use Committee. P-values, indicating statistical significance of the data (ANOVA) are provided in the table: * refers to P<0.05,** refers to P<0.01, *** refers to P<0.005, and **** refers to P<0.0005.

Data set [4] addresses T1, Recombinant human TPH1 (MBP tagged) (Homo sapiens, UniProt P17752).
T1 construct: cloning full length human TPH1 cDNA in to a bacterial pMAL-c5E expression vector; made in house; host or cells: E. coli BL21 (DE3)
T1 sequence (P17752 1-444): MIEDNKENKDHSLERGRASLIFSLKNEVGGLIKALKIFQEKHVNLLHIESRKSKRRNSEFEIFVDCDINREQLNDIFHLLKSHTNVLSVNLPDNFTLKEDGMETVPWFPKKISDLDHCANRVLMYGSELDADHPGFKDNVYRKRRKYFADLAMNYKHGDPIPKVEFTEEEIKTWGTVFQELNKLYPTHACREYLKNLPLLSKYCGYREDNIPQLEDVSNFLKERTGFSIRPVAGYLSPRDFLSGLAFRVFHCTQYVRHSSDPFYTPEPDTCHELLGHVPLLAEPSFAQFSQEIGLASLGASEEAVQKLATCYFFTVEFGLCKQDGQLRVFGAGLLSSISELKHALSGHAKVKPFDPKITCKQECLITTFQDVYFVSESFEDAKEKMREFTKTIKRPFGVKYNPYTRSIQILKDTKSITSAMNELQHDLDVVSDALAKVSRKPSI
The data set is described as follows: TPH1 in vitro inhibition assay (kinetic fluorescence). Format: biochemical. Put shortly:
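Final mix: 15 nM MBP-TPH1, 30 μM Trp, 36 μM 6-methyltetrahydropterin, 25 μM ferrous ammonium sulfate, 50 mM MES pH 7.1, 1% DMSO, room temperature.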

In data set [5] the test system is jejunal mucosal 5-HT in mice (C57 BL6). The data set is described as follows: Intestinal 5-HT depletion assay (Example B, single 150 mg/kg oral dose). Format: in vivo, mouse. Conditions: one day after oral administration of a single 150 mg/kg dose, P-value class (ANOVA). The method in brief: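 C57 BL6 mice received one 150 mg/kg oral gavage dose; jejunal mucosa was homogenized in acidic trichloroacetic acid buffer and 5-HT measured by HPLC. Levels normalized to BCA protein, expressed as mean percent reduction versus vehicle ± SEM; ANOVA significance.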

[6] abbreviates: after three oral doses (first 10 or 50 mg/kg, then two doses of 50 mg/kg) (title).
Where [7] appears, read: read-out: TPH1 Range (TPH1 inhibition IC50).

pIC50: −log10 of the molar value. Where two headings read alike, the source gives them in different places. Some results are limits rather than exact numbers.

`N[C@@H](Cc1ccc(Cl)cc1)C(=O)O` (racemic) [pCPA, p-chlorophenylalanine]: the CNS side effects result in data set [1] (patients and animals) was “linked to the onset of depression and other alterations of CNS functions”. In addition, in data set [2], the “efficacy against chemotherapy-induced emesis and diarrhea” value is “proven effective in treating chemotherapy-induced emesis, as well as diarrhea”. Besides, the “TPH inhibition (in words)” value in the data set on TPH is “very weak and unselective irreversible inhibitor of TPH”.

On to `Cc1ccn(-c2cc(-c3ccc(OC(C)C)cc3)ccc2[C@@H](Oc2cc(N3CCC4(CC3)CN[C@H](C(=O)O)C4)nc(N)n2)C(F)(F)F)n1` [Example 1l, (S)-8-(2-amino-6-((R)-2,2,2-trifluoro-1-(4′-isopropoxy-3-(3-methyl-1H-pyrazol-1-yl)-[1,1′-biphenyl]-4-yl)ethoxy)pyrimidin-4-yl)-2,8-diazaspiro[4.5]decane-3-carboxylic acid], for which the figures for the “Efficacy (statistical significance of reduction of mucosal 5-HT concentrations relative to vehicle)” value in data set [3] (setting [6]) and in data set [5] were “*** (*** refers to P<0.005)” and “**** (and refers to P<0.0005)”, respectively. Also, the negative logarithm of the IC50 (pIC50) in data set [4] (setting [7]) was above 7.30.

Consider `Cc1ccn(-c2cc(-c3ccc(C)c(C)c3)ccc2[C@@H](Oc2cc(N3CCC4(CC3)CN[C@H](C(=O)O)C4)nc(N)n2)C(F)(F)F)n1` [Example 1m, (S)-8-(2-amino-6-((R)-1-(3′,4′-dimethyl-3-(3-methyl-1H-pyrazol-1-yl)-[1,1′-biphenyl]-4-yl)-2,2,2-trifluoroethoxy)pyrimidin-4-yl)-2,8-diazaspiro[4.5]decane-3-carboxylic acid], for which the “Efficacy (statistical significance of reduction of mucosal 5-HT concentrations relative to vehicle)” value in data set [3] ((title)) is given as “* (* refers to P<0.05)”; in data set [5] it was “*** (*** refers to P<0.005)”. Moreover, the pIC50 in data set [4] (TPH1 Range (TPH1 inhibition IC50)) is above 7.30.

Consider `COc1cc(-c2ccc([C@@H](Oc3cc(N4CCC5(CC4)CN[C@H](C(=O)O)C5)nc(N)n3)C(F)(F)F)c(-n3ccc(C)n3)c2)ccn1` [Example 1n, (S)-8-(2-amino-6-((R)-2,2,2-trifluoro-1-(4-(2-methoxypyridin-4-yl)-2-(3-methyl-1H-pyrazol-1-yl)phenyl)ethoxy)pyrimidin-4-yl)-2,8-diazaspiro[4.5]decane-3-carboxylic acid], for which the “Efficacy (statistical significance of reduction of mucosal 5-HT concentrations relative to vehicle)” value in data set [3] (setting [6]) is given as “*** (*** refers to P<0.005)”; in data set [5], “** (** refers to P<0.01)”. In data set [4] (setting [7]), the pIC50 is above 7.30.

With `CCCCc1ccc([C@@H](Oc2cc(N3CCC4(CC3)CN[C@H](C(=O)O)C4)nc(N)n2)C(F)(F)F)c(-n2ccc(C)n2)c1` [Example 12c, (S)-8-(2-amino-6-((R)-1-(4-butyl-2-(3-methyl-1H-pyrazol-1-yl)phenyl)-2,2,2-trifluoroethoxy)pyrimidin-4-yl)-2,8-diazaspiro[4.5]decane-3-carboxylic acid], the “Efficacy (statistical significance of reduction of mucosal 5-HT concentrations relative to vehicle)” value in data set [3] (setting [6]) and in data set [5] was “*** (*** refers to P<0.005)” in each case. Besides, in data set [4] (setting [7]), the pIC50 was above 7.30.

`Nc1nc(O[C@H](c2ccc(-c3ccc4ncccc4c3)cc2)C(F)(F)F)cc(N2CCC3(CC2)CN[C@H](C(=O)O)C3)n1` [Example 55bg, (S)-8-(2-amino-6-((R)-2,2,2-trifluoro-1-(4-(quinolin-6-yl)phenyl)ethoxy)pyrimidin-4-yl)-2,8-diazaspiro[4.5]decane-3-carboxylic acid]: the “Efficacy (statistical significance of reduction of mucosal 5-HT concentrations relative to vehicle)” value in data set [3] (setting [6]) and in data set [5] was “*** (*** refers to P<0.005)” throughout. Also, the pIC50 in data set [4] (setting [7]) is above 7.30.

As for `C#Cc1ccc(C[C@H](N)C(=O)O)cc1` [p-Ethynyl phenylalanine], the “effect on central 5-HT production” value in data set [1] (in vivo) is “affects central 5-HT production”. Besides, the “TPH inhibition (in words)” value with TPH was “more selective and more potent TPH inhibitor than pCPA”.

Values taken from patent US11759462B2, “Spirocyclic compounds as tryptophan hydroxylase inhibitors” (priority 2013, dated 2023).
